Test results taken from patent US10617140B2, “Iron-fortified food composition” (NESTEC S.A., priority 2015, dated 2020).

Assay: Fortification of water: iron content on storage, ICP-AES (Example 7)
Assay type: physicochemical
Protocol: Processed water enriched with 20-30 ppm of sodium and potassium (600 mL) was iron fortified by the addition of different iron ingredients as reported in Table 10. The amounts were chosen to provide approximately 2.1 mg of iron per litre of water. The water was stored in an oven at 40° C. for 18 weeks. The iron content was measured for each sample through ICP-AES.

Ferrous sulfate
Iron content, Week 1 (processed water fortified at approx. 2.1 mg iron per litre, stored at 40° C., ICP-AES, week 1): 0 (Precipitate)
Iron content, Week 18 (processed water fortified at approx. 2.1 mg iron per litre, stored at 40° C., ICP-AES, week 18): 0 (Precipitate)
Behaviour in fortified water (precipitation / remaining in solution) (processed water stored at 40° C., up to 18 weeks): precipitates almost instantaneously
